Source: PubChem BioAssay AID179 (DTP/NCI, 2004)
Active and inactive are the calls of the source.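 How the source made its calls: active means compounds giving half or more protection of infected cells from virus-caused growth loss, again on retest; inactive means the rest.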

Tested on: CEM cells HIV-1 protection, formazan growth assay
Test: NCI AIDS Antiviral Assay
Conditions: for IC50: measured here: growth of uninfected CEM cells
Summary of the method: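 Human CEM cells, uninfected and HIV-1-infected, exposed to five drug concentrations; growth measured by soluble formazan assay and scored as percent protection from infection, with protecting compounds retested.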

| SMILES | EC50 | IC50 | outcome |
| --- | --- | --- | --- |
| COCOC1C(=O)N(c2ccccc2)[C@@H]1c1ccccc1 (stereo partly drawn) | > 91.2 µM | > 91.2 µM |  |
| COC(=O)C1CCC(=O)C(Sc2ccccc2)C1 (stereo not drawn) | > 97.7 µM | 43.7 µM |  |
| CCOP(=O)(OCC)/C(C#N)=C\c1ccc(OC(C)=O)cc1 | > 562 µM | > 562 µM |  |
| Cn1c(/C=N/NC(=O)c2ccc(C(=O)N/N=C/c3c[n+]4ccccc4n3C)cc2)c[n+]2ccccc12 | 35.5 µM | 43.7 µM |  |
| O=C(C(/C=N/C(=S)NC1C(=O)Nc2ccccc21)=C(/O)c1ccccc1)c1ccccc1 (stereo not drawn) | > 200 µM | 41.7 µM |  |
| CC(C)(C)C(=O)C(Cc1ccccc1)C(=O)C(C)(C)C |  |  | inactive |
| N#CC(C(=O)CCC(=O)Nc1cccc(C(F)(F)F)c1)c1ccccc1 (stereo not drawn) | > 692 µM | > 692 µM |  |
| CSC1=N/C(=C\c2ccccc2)C(=O)N1CN1CCOCC1 | > 200 µM | 87.1 µM |  |
| C/C(O)=C(\C=N\C(N)=S)C(=O)Nc1ccc(Cl)cc1 | > 200 µM | > 100 µM |  |
| Cc1occc1C(=S)Nc1ccc(Cl)c(COC(C)(C)C)c1 | 5.13 µM | 29.5 µM |  |
| CCSc1c(S)cnn(C)c1=O | 23.4 µM | 30.9 µM |  |
| Cc1ccc(S(=O)(=O)/C(C#N)=C/NC(=S)Nc2ccc(C)cc2C)cc1 |  |  | inactive |
| COC(=O)[C@H](CCSC)NCc1cc(N(C)C)cc(CN[C@@H](CCSC)C(=O)OC)n1 | > 200 µM | > 200 µM |  |
| Cc1cc([N+](=O)[O-])c(=O)[nH]c1C | > 1480 µM | 832 µM |  |
| ClCC1(CCl)COC1 | > 1620 µM | > 1620 µM |  |
| O=C(Nc1ccccc1)C(c1ccccc1)N(Nc1ccccc1Cl)c1ccccc1Cl (stereo not drawn) | > 200 µM | 33.9 µM |  |
| Cc1cc(=O)[nH]c(-n2[nH]c3c(c2=O)CCCC3)n1 | > 200 µM | 24.5 µM |  |
| CN1C(=O)N(C)C(O)C1O (stereo not drawn) | > 200 µM | > 200 µM |  |
| N#CC(C#N)=c1cc/c(=c2/ccc(=C(C#N)C#N)s2)s1 | > 24.5 µM | > 24.5 µM |  |
| CC(=O)/C=C(/C)[O-].CCN(CC)CCNCCN.O=N[O-].[Co+3].[O-][Cl+3]([O-])([O-])[O-] | > 200 µM | > 200 µM |  |
| COc1cc([C@@H]2c3cc4c(c(O)c3C[C@H]3COC(=O)[C@@H]32)OCO4)cc(OC)c1O | > 3.24 µM | 0.00174 µM |  |
| CO[C@H]1[C@H](O)[C@H](O[C@H]2CC[C@@]3(C)[C@H](CC[C@@H]4[C@@H]3CC[C@]3(C)[C@@H](C5=CC(=O)OC5)CC[C@]43O)C2)O[C@@H](C)[C@@H]1O |  |  | inactive |

| SMILES | EC50 | IC50 | outcome |
| --- | --- | --- | --- |
| N#Cc1c(SCc2ccccc2)nc(-c2ccccc2)[nH]c1=S | > 151 µM | 19.5 µM |  |
| CCCCCCCCCCCCCC1=C(O)C(=O)C(CC2=C(O)C(=O)C(CCCCCCCCCCCCC)=C(O)C2=O)=C(O)C1=O | > 17 µM | > 17 µM |  |
| CCc1nc(N)nc(N)c1-c1ccc(Cl)c(N=NN(C)C)c1 | > 1 µM | 0.589 µM |  |
| Cc1cc(NS(=O)(=O)c2ccc(N=Nc3cc(N=Nc4ccc(S(=O)(=O)Nc5cc(C)nc(C)n5)cc4)c4c(NC(=O)C(Cl)Cl)cccc4c3OC(=O)C(Cl)Cl)cc2)nc(C)n1 (tested in a mixture with another compound) |  |  | inactive |
| CN(C)CCCNC(=O)c1cc(NC(=O)c2cc(NC(=O)c3cc(NC(=O)c4ccc(C(=O)Nc5cn(C)c(C(=O)Nc6cn(C)c(C(=O)Nc7cn(C)c(C(=O)NCCCN(C)C)n7)n6)n5)cc4)cn3C)cn2C)cn1C | > 50.1 µM | > 50.1 µM |  |
| COc1ccc(N2C(=O)C(C#N)=C(SC)C(C#N)C2=O)cc1 (stereo not drawn) | > 200 µM | 174 µM |  |
| Cc1sc2ccccc2c2nc3ccccc3c1-2 |  |  | inactive |
| Nc1ccc2nc3ccc(O)cc3nc2c1 | > 200 µM | 17 µM |  |
| CC1=NNC(=O)C1C1CC(c2c[nH]c3ccccc23)=NN(C(N)=O)C1=O (stereo not drawn) | > 200 µM | > 100 µM |  |
| COc1ccc2c(c1)CCC(OS(=O)(=O)CC13CCC(CC1=O)C3(C)C)C2=O (stereo not drawn) | > 200 µM | 10.5 µM |  |
| CCCCOC(=O)OC1CCC2(C)CC3CCC2(OO3)C1(C)C (stereo not drawn) | > 200 µM | 0.977 µM |  |
| O=C1N2CCNc3ccccc3C(c3ccccc3)N1CC2 (stereo not drawn) | > 200 µM | 18.6 µM |  |
| C[C@H](OCc1ccccc1)C(=O)N1CCS(=O)(=O)N2CCC[C@H]2C1=O | > 676 µM | > 676 µM |  |
| c1ccc(C2NC(c3ccccc3)N3C(c4ccccc4)N23)cc1 (stereo not drawn) | > 16.6 µM | > 16.6 µM |  |
| CSc1cc(Br)ccc1-n1c(C(=O)c2ccccc2)c(SC)n(-c2ccccc2)c1=O | > 200 µM | 14.5 µM |  |
| C[Si](C)(CCC(=O)O)O[Si](C)(C)CCC(=O)O | > 646 µM | > 646 µM |  |
| CC1CN=C(Nc2ccc(F)c(Cl)c2)S1 (stereo not drawn) | > 200 µM | 132 µM |  |
| O=C(Cn1c(=O)ccn(C2OC(CO)C(O)C2F)c1=O)c1ccc(F)cc1 (stereo not drawn) | > 200 µM | > 200 µM |  |
| O=S(O)CCCCSSCCCCSSCCCCS(=O)O |  |  | inactive |
| Cc1nnn[n-]1.N.N.N.N.N.[Cl-].[Co+3] | > 832 µM | > 832 µM |  |
| COc1ccc2[nH]c3c(C)cc([N+](=O)[O-])c(C)c3c2c1 | > 200 µM | 10.7 µM |  |
| CC1NC(/C(=C/c2ccccc2O)NC(=O)c2ccccc2)OC1=O (stereo not drawn) | > 50.1 µM | > 50.1 µM |  |

| SMILES | EC50 | IC50 | outcome |
| --- | --- | --- | --- |
| Cc1oc2c(C)c3oc(=O)cc(C)c3cc2c1CCl | > 20 µM | 2.95 µM |  |
| COC(=O)C1=NC(=N)N=C(C(=O)OC)C12C(=O)Cc1ccccc12 (stereo not drawn) | 339 µM | 398 µM |  |
| CC(C)CC1N=C(OCc2ccccc2)OC1=O (stereo not drawn) | > 200 µM | > 200 µM |  |
| Oc1c2c(c(O)c3ccccc13)=N[C@@H](c1ccccc1)[C@H](c1ccccc1)N=2 |  |  | inactive |
| CC(=O)OC(=C(C#N)C#N)c1nccnc1C(C)=O | > 200 µM | 11.2 µM |  |
| Cc1nn(C(=O)Cc2ccccc2)c2c1C(c1ccccc1[N+](=O)[O-])SC(N)=N2 (stereo not drawn) | > 501 µM | 87.1 µM |  |
| C/C(=N\NC(=S)N/N=C(\C)c1ccccn1)c1ccccn1 | > 200 µM | 1.32 µM |  |
| COC(=O)CNC(=O)C(CSC(=O)OCC1c2ccccc2-c2ccccc21)NC(=O)CCC(NC(=O)OCC1c2ccccc2-c2ccccc21)C(=O)OC (stereo not drawn) | > 200 µM | 29.5 µM |  |
| CC1NC(=O)C(C)C(c2ccccc2)N(N=O)C1c1ccccc1 (stereo not drawn) | > 209 µM | 186 µM |  |
| Cc1ccc(Sc2ccccc2N)cc1 | > 178 µM | 51.3 µM |  |
| O=C(O)CCSC(=S)Nc1ccccc1 |  |  | inactive |
| CC1(C)CNC[C@](C)(OCCOC(c2ccccc2)(c2ccccc2)c2ccccc2)C(=O)NC(C)(C)CNC[C@@](C)(OCCOC(c2ccccc2)(c2ccccc2)c2ccccc2)C(=O)N1 | > 200 µM | > 200 µM |  |
| CN1/C(=C/C=C/C=C/C=C2C(=O)c3ccccc3C2=O)C(C)(C)c2ccccc21 | 120 µM | 151 µM |  |
| CC(=O)NC(CCCCNC(=O)OCc1ccccc1)C(=O)NCc1ccccc1 (stereo not drawn) | > 87.1 µM | > 87.1 µM |  |
| N/C(=N\NS(=O)(=O)c1ccccc1)Oc1ccc(Br)cc1Br | > 112 µM | > 112 µM |  |
| CN1C(=O)[C@@H]2[C@@H]3c4ccccc4N[C@@H]3c3[nH]c4ccccc4c3[C@@H]2C1=O | > 200 µM | 81.3 µM |  |
| COc1cc2c(cc1OC)CC(=O)Nc1cc(OC)c(OC)cc1CC2 |  |  | inactive |
| C=C1C(=O)OC2CC(C)C3(O)C=C(C(C)=O)C4(OC3CC12)C(=O)OC1CC(C)C2(/C=C\C(C)=O)OC2CC14 (stereo not drawn) | > 479 µM | 81.3 µM |  |
| Cc1ccc(S(=O)(=O)/C(C#N)=C/n2ccc(=O)[nH]c2=S)cc1 | > 200 µM | > 200 µM |  |
| N#Cc1c(=O)c2cc([N+](=O)[O-])ccc2n2c1[nH]c1ccccc12 | > 200 µM | 3.55 µM |  |
| CN1C2=C(CC3=C1CC(C)(C)CC3=O)C(=O)CC(C)(C)C2 | > 100 µM | > 100 µM |  |
| COc1cc(C2c3cc(O)c(OC)cc3C[C@H]3C(=O)OCC23)ccc1O (stereo partly drawn) | > 141 µM | > 141 µM |  |

| SMILES | EC50 | IC50 | outcome |
| --- | --- | --- | --- |
| CC(=O)ONC(=O)CSc1nn2cc(-c3ccccc3)nc2s1 | 186 µM | > 200 µM |  |
| Cc1cccc(NC(=O)C(=O)C(C2OC(=O)c3ccccc32)[N+](=O)[O-])c1C (stereo not drawn) |  |  | inactive |
| COc1ccc(/C(=N/OCCCC(=O)O)c2cccs2)cc1 |  |  | inactive |
| CC(C)(N)C(=O)N[C@@H]1C(=O)N2[C@@H]1SC(C)(C)[C@@H]2C(=O)O | > 200 µM | > 200 µM |  |
| CN(C)c1nc(N(C)C)nc(N(C)C)n1 | > 34.7 µM | 26.3 µM |  |
| CN(C)C1C(=O)C(C(=O)NCNC2C(=O)N3C2SC(C)(C)C3C(=O)O)=C(O)C2(O)C(=O)C3=C(O)c4c(O)cccc4C(C)(O)C3CC12 (stereo not drawn) | > 269 µM | 251 µM |  |
| O=c1oc2c(c(=O)n1-c1ccccc1)CC1(CCCCC1)C2 | > 200 µM | > 200 µM |  |
| C=C1CC(C)(Cn2cnc3c(N)ncnc32)OC1=O (stereo not drawn) | > 200 µM | 11.2 µM |  |
| COC(=O)CCCC=C(c1cc(C)c(OC)c(C(=O)OC)c1)c1cc(C)c(OC)c(C(=O)OC)c1 | 2.4 µM | 89.1 µM |  |
| O=c1[nH]c(Nc2ccc(Cl)cc2)nc2nc[nH]c12 | > 100 µM | 89.1 µM |  |
| Cc1ccc(N(C(=O)Nc2ccc(F)c(Cl)c2)C2=NCC(C)S2)cc1 (stereo not drawn) | > 200 µM | 186 µM |  |
| O=C(N/C(=C\c1ccc(/C=C(\NC(=O)c2ccccc2)c2nc3ccccc3[nH]2)cc1)c1nc2ccccc2[nH]1)c1ccccc1 |  |  | inactive |
| Cc1cc(=O)[nH]c(N/N=C/c2ccc(Cl)c(Cl)c2)n1 | > 24.5 µM | 12.3 µM |  |
| CC(C)=CCC/C(C)=C/Cc1cc2ccc(=O)oc2cc1O | > 63.1 µM | 32.4 µM |  |
| C=C1CC2C[C@H](OS(=O)(=O)c3ccc(C)cc3)C(C1)N2C (stereo partly drawn) | > 200 µM | > 200 µM |  |
| CC(=O)N1C(c2[nH]c3ccccc3c2-c2ccccc2)CCN1c1ccccc1 (stereo not drawn) | > 200 µM | 74.1 µM |  |
| CCOC(=O)C1(C)CCC(C(=O)OC)C1=O (stereo not drawn) | > 794 µM | 52.5 µM |  |
| O=C(CSc1nnc(Cc2ccccc2)o1)Nc1ccc(Cl)cc1Cl | > 66.1 µM | > 66.1 µM |  |
| COC(=O)c1ccc(CO/N=C(\c2ccccc2)c2cccnc2)cc1 | > 200 µM | 47.9 µM |  |
